Assay results from DBAASP.
Converted amounts (≈) assume the structure as drawn. Values belong to the molecule of their own block, whether it stands above or below them.

How the values were obtained:
Test in all cases: ≥ marks a high value that may be exact or a test limit, other limits are often not marked, values filed in µg/mL are converted to µM
[1] = system: Escherichia coli K12 MG1655
Streptococcus mutans = system: Streptococcus mutans
[2] = system: Escherichia coli DH5alpha
[3] = system: Escherichia coli ATCC 25922
[4] = system: Pseudomonas aeruginosa CMCCB 10104
[5] = system: Candida albicans ATCC 2002
[6] = system: Staphylococcus aureus ATCC 25923
[7] = system: Pseudomonas aeruginosa ATCC 27853
[8] = system: Enterococcus faecalis ATCC 29212
Leuconostoc lactis = system: Leuconostoc lactis
Shigella dysenteriae = system: Shigella dysenteriae
Pseudomonas aeruginosa = system: Pseudomonas aeruginosa
Bacillus cereus = system: Bacillus cereus
[9] = system: Staphylococcus aureus ATCC 2592

MIC (Streptococcus mutans): ≥ 42.1 µM
Structure (SMILES): CC(C)C[C@H](NC(=O)[C@H](Cc1cnc[nH]1)NC(=O)[C@H](CCCCN)NC(=O)[C@H](Cc1ccccc1)NC(=O)[C@H](CCCN=C(N)N)NC(=O)[C@H](CCCCN)NC(=O)[C@H](CC(C)C)NC(=O)[C@H](CC(C)C)NC(=O)[C@@H](N)CCCN=C(N)N)C(=O)N[C@@H](Cc1ccccc1)C(=O)N[C@@H](CCCCN)C(=O)O [RLLKRFKHLFK]

MIC (Streptococcus mutans): 11.5 µM (≈ 32 µg/mL)
Structure (SMILES): NC(=O)[C@H](Cc1ccccc1)NC(=O)[C@H](Cc1c[nH]c2ccccc12)NC(=O)[C@H](Cc1c[nH]c2ccccc12)NC(=O)[C@H](Cc1c[nH]c2ccccc12)NC(=O)[C@H](CCCN=C(N)N)NC(=O)[C@H](CCCN=C(N)N)NC(=O)[C@H](CCCN=C(N)N)NC(=O)[C@@H]1CCCN1C(=O)[C@H](CO)NC(=O)CNC(=O)[C@H](CO)NC(=O)[C@@H]1CCCN1C(=O)[C@H](Cc1ccccc1)NC(=O)[C@H](Cc1c[nH]c2ccccc12)NC(=O)[C@H](Cc1c[nH]c2ccccc12)NC(=O)[C@H](Cc1c[nH]c2ccccc12)NC(=O)[C@H](CCCN=C(N)N)NC(=O)[C@H](CCCN=C(N)N)NC(=O)[C@@H](N)CCCN=C(N)N [RRRWWWFPSGSPRRRWWWF]

MIC (Streptococcus mutans): 6.76 µM (≈ 16 µg/mL)
Structure (SMILES): NC(=O)[C@H](Cc1ccccc1)NC(=O)[C@H](Cc1c[nH]c2ccccc12)NC(=O)[C@H](Cc1c[nH]c2ccccc12)NC(=O)[C@H](Cc1c[nH]c2ccccc12)NC(=O)[C@H](CCCN=C(N)N)NC(=O)[C@H](CCCN=C(N)N)NC(=O)[C@H](CCCN=C(N)N)NC(=O)[C@H](Cc1ccccc1)NC(=O)[C@H](Cc1c[nH]c2ccccc12)NC(=O)[C@H](Cc1c[nH]c2ccccc12)NC(=O)[C@H](Cc1c[nH]c2ccccc12)NC(=O)[C@H](CCCN=C(N)N)NC(=O)[C@H](CCCN=C(N)N)NC(=O)[C@@H](N)CCCN=C(N)N [RRRWWWFRRRWWWF]

MIC (Streptococcus mutans): 26.6 µM (≈ 32 µg/mL)
Structure (SMILES): NC(N)=NCCC[C@H](NC(=O)[C@H](Cc1c[nH]c2ccccc12)NC(=O)[C@H](CCCN=C(N)N)NC(=O)[C@H](Cc1c[nH]c2ccccc12)NC(=O)[C@H](CCCN=C(N)N)NC(=O)[C@H](Cc1c[nH]c2ccccc12)NC(=O)[C@@H](N)CCCN=C(N)N)C(=O)O [RWRWRWR]

MIC [3]: 3.93 µM (≈ 13.2 µg/mL) | MIC [4]: 1.97 µM (≈ 6.6 µg/mL) | MIC [5]: 1.97 µM (≈ 6.6 µg/mL) | MIC [6]: 1.97 µM (≈ 6.6 µg/mL)
Structure (SMILES): CC[C@H](C)[C@H](NC(=O)[C@H](C)NC(=O)[C@H](CC(C)C)NC(=O)[C@H](CC(N)=O)NC(=O)[C@H](CCCCN)NC(=O)[C@H](CC(C)C)NC(=O)[C@@H](NC(=O)[C@H](CC(=O)O)NC(=O)[C@H](CC(C)C)NC(=O)[C@H](Cc1ccccc1)NC(=O)[C@@H](N)CO)[C@@H](C)O)C(=O)N[C@@H](CO)C(=O)N[C@@H](C)C(=O)N[C@@H](C)C(=O)N[C@@H](CCCCN)C(=O)NCC(=O)N[C@@H](C)C(=O)NCC(=O)N[C@@H](CCC(N)=O)C(=O)N[C@@H](CO)C(=O)N[C@H](C(=O)N[C@@H](CC(C)C)C(=O)N[C@@H](CO)C(=O)N[C@H](C(=O)N[C@@H](CC(C)C)C(=O)N[C@@H](CO)C(=O)N[C@H]1CSSC[C@@H](C(=O)O)NC(=O)[C@H]([C@@H](C)O)NC(=O)[C@H](CCC(=O)O)NC(=O)[C@H](CO)NC(=O)[C@H](CC(C)C)NC(=O)[C@H](CCCCN)NC1=O)[C@@H](C)O)C(C)C [SFLDTLKNLAISAAKGAGQSVLSTLSCKLSETC]

Second part, the molecule before the results:

Structure (SMILES): CC[C@H](C)[C@H](NC(=O)[C@H](C)N)C(=O)N[C@@H](C)C(=O)N[C@@H](CCCN=C(N)N)C(=O)N[C@H](C(=O)N[C@@H](CCCN=C(N)N)C(=O)N[C@@H](CCCN=C(N)N)C(=O)N[C@@H](CCCN=C(N)N)C(=O)N[C@@H](CC(C)C)C(=O)N[C@@H](CC(C)C)C(=O)N[C@@H](CC(C)C)C(=O)N[C@@H](Cc1ccc(O)cc1)C(=O)N[C@@H](CC(C)C)C(=O)N[C@@H](CC(C)C)C(=O)N[C@@H](C)C(=O)O)[C@@H](C)O [AIARTRRRLLLYLLA]
MIC [1]: ≥ 71.1 µM

Structure (SMILES): C[C@H](N)C(=O)N[C@@H](CCC(N)=O)C(=O)N[C@@H](C)C(=O)N[C@@H](C)C(=O)N[C@@H](Cc1cnc[nH]1)C(=O)N[C@@H](CCC(N)=O)C(=O)N[C@@H](C)C(=O)N[C@@H](C)C(=O)N[C@@H](Cc1cnc[nH]1)C(=O)N[C@@H](C)C(=O)N[C@@H](C)C(=O)N[C@@H](Cc1cnc[nH]1)C(=O)N[C@@H](CCC(N)=O)C(=O)N[C@@H](Cc1ccccc1)C(N)=O [AQAAHQAAHAAHQF]
MIC (Streptococcus mutans): ≥ 85.7 µM

Structure (SMILES): CC[C@H](C)[C@H](NC(=O)[C@H](Cc1cnc[nH]1)NC(=O)[C@H](C)NC(=O)[C@H](CCSC)NC(=O)[C@H](CC(N)=O)NC(=O)[C@H](CCCCN)NC(=O)[C@H](CCCCN)NC(=O)[C@@H](NC(=O)[C@@H](NC(=O)[C@H](CCCCN)NC(=O)[C@H](C)NC(=O)[C@H](Cc1ccccc1)NC(=O)[C@H](CC(C)C)NC(=O)[C@H](CCCCN)NC(=O)[C@@H]1CCCN1C(=O)[C@H](CC(C)C)NC(=O)[C@@H](N)Cc1ccccc1)[C@@H](C)CC)[C@@H](C)O)C(=O)N[C@@H](CCCN=C(N)N)C(=O)O [FLPKLFAKITKKNMAHIR]
MIC [2]: ≥ 50 µM | MIC [3]: 1.48 µM (≈ 3.2 µg/mL) | MIC [4]: 1.48 µM (≈ 3.2 µg/mL) | MIC [5]: 0.742 µM (≈ 1.6 µg/mL) | MIC [6]: 0.742 µM (≈ 1.6 µg/mL) | MIC [7]: 50 µM (≈ 108 µg/mL)

Structure (SMILES): CC[C@H](C)[C@H](NC(=O)CNC(=O)[C@@H](NC(=O)[C@@H](NC(=O)[C@H](Cc1cnc[nH]1)NC(=O)[C@H](CCCCN)NC(=O)[C@H](C)NC(=O)[C@H](CC(C)C)NC(=O)[C@H](CC(=O)O)NC(=O)[C@H](CC(C)C)NC(=O)[C@H](CC(C)C)NC(=O)CN)C(C)C)[C@@H](C)CC)C(=O)N[C@@H](C)C(=O)N[C@@H](CO)C(=O)N[C@@H](CCCCN)C(=O)N[C@@H](CC(C)C)C(N)=O [GLLDLAKHVIGIASKL]
MIC [8]: 100 µM (≈ 165 µg/mL) | MIC (Leuconostoc lactis): ≥ 100 µM

Structure (SMILES): CSCC[C@@H]1NC(=O)[C@H](C(C)C)NC(=O)[C@H](C)NC(=O)[C@H](CCCN=C(N)N)NC(=O)[C@H](Cc2ccccc2)NC(=O)CNC(=O)CNC(=O)[C@H](CCCCN)NC(=O)[C@@H](NC(=O)[C@H](CCCN=C(N)N)NC(=O)[C@@H]2CCCN2C(=O)[C@H](CCSC)NC(=O)[C@H](CO)NC(=O)[C@H](Cc2ccc(O)cc2)NC(=O)[C@H](C)NC(=O)[C@@H](N)CCCCN)CSSC[C@@H](C(=O)N[C@@H](Cc2c[nH]c3ccccc23)C(=O)N[C@@H](CC(C)C)C(N)=O)NC1=O [KAYSMPRCKGGFRAVMCWL]
MIC (Shigella dysenteriae): 5.67 µM (≈ 12.5 µg/mL) | MIC (Pseudomonas aeruginosa): 22.7 µM (≈ 49.9 µg/mL) | MIC [3]: 5.67 µM (≈ 12.5 µg/mL) | MIC (Bacillus cereus): 22.7 µM (≈ 49.9 µg/mL) | MIC [5]: 22.7 µM (≈ 49.9 µg/mL) | MIC [9]: 11.3 µM (≈ 25 µg/mL)

Structure (SMILES): CC(C)C[C@H](NC(=O)[C@H](C)NC(=O)[C@@H](N)CC(N)=O)C(=O)N[C@@H](CO)C(=O)N[C@@H](CO)C(=O)N1CCC[C@H]1C(=O)N[C@@H](CCCN=C(N)N)C(=O)N[C@@H](CC(N)=O)C(=O)N[C@@H](CCCCN)C(=O)N[C@H]1CSSC[C@@H](C(=O)N[C@@H](Cc2ccccc2)C(=O)NCC(=O)O)NC(=O)[C@H](CO)NC(=O)[C@H](CO)NC(=O)[C@H](C)NC(=O)[C@H](CCCN=C(N)N)NC(=O)[C@H](CC(=O)O)NC1=O [NALSSPRNKCDRASSCFG]
MIC (Shigella dysenteriae): 1.62 µM (≈ 3.1 µg/mL) | MIC (Pseudomonas aeruginosa): 3.27 µM (≈ 6.25 µg/mL) | MIC [3]: 26.1 µM (≈ 49.9 µg/mL) | MIC (Bacillus cereus): 6.53 µM (≈ 12.5 µg/mL) | MIC [5]: 3.27 µM (≈ 6.24 µg/mL) | MIC [9]: 3.27 µM (≈ 6.24 µg/mL)
